Key:
[1] = target: T1, P-glycoprotein at the blood-brain barrier (Mus musculus, UniProt P21447); experiment: Biodistribution with P-glycoprotein activity inhibited by concomitant tariquidar (TQD); format: in vivo, Balb/C or FVB mice; settings: mice, with and without TQD (FIG. 15)
T1 construct: investigated in vivo (Balb/C or FVB mice) by biodistribution studies and/or metabolite analysis; tissue Charles River UK; host or cells: living Balb/C or FVB mice; blood-brain barrier / brain
Description: A series of radiolabelled tracers was prepared using the reported chemistry and investigated in vivo (Balb/C or FVB mice) by biodistribution studies and/or metabolite analysis. Examples in FIGS. 7-10 highlight the versatility of the reported chemistry that allows for tracers with a variety of backbone structures and side chains. By deliberately modifying chemical moieties the tracer can be fine-tuned towards up-take in tissues of interest, e.g. brain, heart or lungs. FIGS. 11-15 show the results of the in vivo investigation of a potential pro-drug tracer that was developed to monitor the efflux pump P-glycoprotein at the blood-brain barrier. […]
(§1) The respective radiotracer (0.5-1 MBq formulated in a saline solution containing 5% ethanol) was administered intravenously into the tail vein. […] The organs of interest (blood, colon, stomach, spleen, kidneys, liver, heart, lungs, tail, femur, skull, and brain) were sampled, weighed, and the radioactivity content was measured by automated gamma counting (Cobra Multi Gamma Model 5010-Packard, UK). Results were normalised to the radioactivity found in 1% of the injected dose per gram bodyweight. All experiments were performed in duplicates or triplicates and analysed using Microsoft Office Excel 2007.
Brains were homogenised in saline (0.5 ml) and ethanol (0.5 ml). […] The flow rate was 1 ml/min and the UV absorbance detector was set at 254 nm. […]

[2] = Biodistribution studies: blood and brain uptake of radiotracer over time; format: in vivo, Balb/C or FVB mice; settings: mice
Description: A series of radiolabelled tracers was prepared using the reported chemistry and investigated in vivo (Balb/C or FVB mice) by biodistribution studies and/or metabolite analysis. Examples in FIGS. 7-10 highlight the versatility of the reported chemistry that allows for tracers with a variety of backbone structures and side chains. By deliberately modifying chemical moieties the tracer can be fine-tuned towards up-take in tissues of interest, e.g. brain, heart or lungs. FIGS. 11-15 show the results of the in vivo investigation of a potential pro-drug tracer that was developed to monitor the efflux pump P-glycoprotein at the blood-brain barrier.
Female Balb/C mice and FVB mice were obtained from Charles River UK. When used, they were eight to eleven weeks old and weighing approximately 20 g. […]
as §1

T1 sequence (P21447 whole entry): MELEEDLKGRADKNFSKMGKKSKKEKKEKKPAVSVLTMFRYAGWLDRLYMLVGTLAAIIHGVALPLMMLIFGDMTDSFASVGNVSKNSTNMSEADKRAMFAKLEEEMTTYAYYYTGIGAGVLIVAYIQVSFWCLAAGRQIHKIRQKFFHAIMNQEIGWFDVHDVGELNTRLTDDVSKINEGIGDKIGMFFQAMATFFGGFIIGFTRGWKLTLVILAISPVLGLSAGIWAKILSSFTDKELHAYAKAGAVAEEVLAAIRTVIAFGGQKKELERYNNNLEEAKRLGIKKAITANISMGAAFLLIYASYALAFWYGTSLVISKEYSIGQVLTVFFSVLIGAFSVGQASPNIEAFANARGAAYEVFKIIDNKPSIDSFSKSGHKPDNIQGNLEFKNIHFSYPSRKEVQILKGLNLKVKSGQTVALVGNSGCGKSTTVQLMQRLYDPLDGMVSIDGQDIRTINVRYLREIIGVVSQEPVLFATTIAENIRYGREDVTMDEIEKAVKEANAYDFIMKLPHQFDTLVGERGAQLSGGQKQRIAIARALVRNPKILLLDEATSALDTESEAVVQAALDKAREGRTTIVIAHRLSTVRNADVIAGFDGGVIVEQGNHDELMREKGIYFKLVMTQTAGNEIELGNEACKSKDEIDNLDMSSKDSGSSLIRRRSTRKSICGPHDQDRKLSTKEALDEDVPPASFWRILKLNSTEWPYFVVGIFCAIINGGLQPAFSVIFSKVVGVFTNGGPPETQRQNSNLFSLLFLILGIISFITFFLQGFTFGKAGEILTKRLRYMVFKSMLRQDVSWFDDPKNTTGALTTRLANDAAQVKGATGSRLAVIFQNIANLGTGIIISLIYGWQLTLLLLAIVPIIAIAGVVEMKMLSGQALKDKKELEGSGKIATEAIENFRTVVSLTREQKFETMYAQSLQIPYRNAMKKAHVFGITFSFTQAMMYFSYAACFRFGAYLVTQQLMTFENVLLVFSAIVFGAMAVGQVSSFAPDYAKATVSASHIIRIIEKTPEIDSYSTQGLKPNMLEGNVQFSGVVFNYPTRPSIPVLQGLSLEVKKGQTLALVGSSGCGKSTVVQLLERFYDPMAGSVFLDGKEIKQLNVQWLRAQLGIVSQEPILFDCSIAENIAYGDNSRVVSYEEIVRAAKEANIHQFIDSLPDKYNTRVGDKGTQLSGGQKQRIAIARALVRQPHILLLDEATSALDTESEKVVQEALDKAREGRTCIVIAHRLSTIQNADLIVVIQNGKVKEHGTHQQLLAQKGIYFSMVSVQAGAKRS

With `OCCCCN1CCC(=C(c2ccccc2)c2ccc(F)cc2)CC1` [Compound [^18F]6] the “wash-out of tracer from the brain by P-glycoprotein” value [1] was “consistently washed out of the brain by P-glycoprotein”, the brain uptake ([2]; intravenous into tail vein, uptake over time (FIG. 15)) was “high brain uptake” and the “brain to blood ratio” value ([2]; intravenous, FIG. 15, suitable for nuclear imaging) was “good brain to blood ratio”.

From patent publication US10118892B2, “Compounds and their synthesis” (UCL BUSINESS PLC, priority 2012, dated 2018)
